Patent US20060069095A1, “Azole derivatives” (priority 2004, published 2006)

Experiments:
A549 cells = assay: MTT assay in A549 cells; type: cell-based, human; conditions: 5 days incubation, 3 μM to 0.15 nM
Method: To further show the activity of the compounds according to this invention, their effects on a […] was evaluated using a standard MTT-assay. MTT (3-(4,5-dimethylthiazol-2-yl)-2,5-diphenyl tetrazolium bromide) is widely used for the quantitative determination of cytotoxic effects or in vitro chemosensitivity of tumor cells. The assay is based on the cleavage of the yellow tetrazolium salt (MTT) to purple formazan crystals by metabolic active cells. For details, see Rubinstein, L. V., et al., J. Natl. Cancer Inst. 82 (1990) 1113-1118.
A549 cells (human lung carcinoma cell line ATTC-No. CCL-185) were cultivated in RPMI (Roswell Park Memorial Institute) 1640 medium with GlutaMAX™ I (Invitrogen, Cat-No. 61870-010), 2,5% Fetal Calf Serum (FCS, Sigma Cat-No. F4135 (FBS)); 100 Units/ml penicillin/100 μg/ml streptomycin (=Pen/Strep from Invitrogen Cat. No. 15140). For the assay the cells were seeded in 384 well plates, 900 cells per well, in the same medium. The next day compounds (dissolved 10 mM in dimethylsulfoxide (DMSO)) were added in various concentrations ranging from 3 μM to 0.15 nM (10 concentrations, 1:3 diluted). After 5 days MTT assay was done mainly according to the instructions of the manufacturer (Cell proliferation kit I, MTT, from Roche Molecular Biochemicals). In brief: MTT labeling reagent (3-(4,5-dimethylthiazol-2-yl)-2,5-diphenyltetrazolium bromide (MTT)) was added to a final concentration of 0.5 mg/ml, added and incubated for 4 hrs at 37° C., 5% CO2. During this incubation time purple formazan crystals are formed. After addition of the solubilization solution (20% Sodium Dodecyl Sulfate (SDS) in 0.02 M HCl) the plates were incubated overnight at 37° C., 5% CO2. After careful mixing plates were measured in Victor 2 scanning multiwell spectrophotometer (Wallac) at 550 nm.
A decrease in number of living cells results in a decrease in the total metabolic activity in the sample. The decrease directly correlates to the amount of purple color resulting from the solubilization of the purple formazan crystals.
• A549: 900 cells in 60 μl per well of 384 well plate (Greiner) • Medium: RPMI 1640, 2.5% FCS, glutamine, Pen/Strep. • Incubate 1 day at 37° C.
Induction: • Dilution of compound in DMSO: 3 μl 10 mM+27 μl DMSO, dilute 1:3 • Add 2 μl of compound dilution row to 95 μl of medium • Add 10 μl of compound dilution to 60 μl medium in test plate resulting in 0.3% DMSO per well • Incubate 120 h (5 days) at 37° C., 5% CO2
Analysis: • Add 7 μl MTT (5 mg/7 ml/well), incubate 4 h at 37° C. • Add 30 μl lysis buffer (20% SDS, 0.04 N HCl) per well • Incubate overnight at 37° C.
Measurement: • Victor 2 scanning multiwell spectrophotometer (Wallac) at 550 nm
Determination of IC50 was done using XL-fit (XLfit software (ID Business Solution Ltd., Guilford, Surrey, UK)).

A549-Cell-Xenograft = assay: In vivo assay on tumor inhibition (A549 xenograft); parameters: species or system mice; conditions: daily dosage of 80 mg/kg, oral, after 23 days of treatment (44 days of experiment), median tumor volume
Method: In vivo Assay on Tumor Inhibition:
To generate primary tumors, Non-Small-Cell Lung Cancer (NSCLC) (e.g. Calu-3 (ATTC HTB-55) or A549 (ATTC CCL-185)) cells (4-5.0×10^6 in a volume of 100 μl) are injected subcutaneously into the left flank of female SCID beige (Severe Combined Immunodeficient/beige mice available from Charles River, Sulzfeld, Germany) or BALB/c nude (BALB/c Nude Spontaneous Mutant Mice (homozygotes) available from Taconic Europe, Ry, Denmark) mice. The cells are thawed and expanded in vitro before use in the experiment. Mice are assigned to the treatment groups 14-21 days after cell injection. […] The subcutaneous primary tumors are measured twice weekly, starting prior to randomisation, in two dimensions (length and width) using an electronic caliper. The volume of the primary tumor is calculated using the formula: V[mm^3]=(length [mm]×width [mm]×width [mm])/2. In addition, the body weight of all animals is recorded at least twice weekly. […]
In one example of the above procedure, treatment was started on or about the 20th-21st day of the experiment (after cell injection) and the treatment was carried out for 23 days (about 44 days of experiment). In this example, primary tumor volume was calculated according to NCI protocol (TW=½ ab^2, where a and b were long and short diameters of tumor mass in mm). […] Tumor weight was determined by analytic scale at termination (day 44/45). […]

SMILES: Cn1nncc1CCCCc1ccc(OCc2coc(/C=C/c3ccc(OC(F)(F)F)cc3)n2)cc1 [Example 1.2, Methyl-5-[4-(4-{2-[(E)-2-(4-trifluoromethoxy-phenyl)-vinyl]-oxazol-4-ylmethoxy}-phenyl)-butyl]-1H-[1,2,3]triazole]
- IC50 (A549 cells): 7 nM
- Tumor Growth Inhibition (TGI) (A549-Cell-Xenograft): 50%

SMILES: Cc1cc(OCc2coc(/C=C/c3ccc(OC(F)(F)F)cc3)n2)ccc1CCCCc1cnn(C)n1 [Example 3.2, 2-Methyl-4-[4-(2-methyl-4-{2-[(E)-2-(4-trifluoromethoxy-phenyl)-vinyl]-oxazol-4-ylmethoxy}-phenyl)-butyl]-2H-[1,2,3]triazole]
- Tumor Growth Inhibition (TGI) (A549-Cell-Xenograft): 72%
